Data: patent US20250221964A1, “Substituted Isoxazoles as Selective Nav1.7 Inhibitors for Pain Treatment and Method of Pain Treatment” (Board of Regents, The University of Texas System, priority 2021, published 2025)
Like-named read-outs stand apart in the source and are kept apart here. Each block holds one compound with its values, some of them ahead of it.

Assays:
[1] = mouse exposure / pharmacokinetics in formalin study (plasma, brain); type: in vivo; conditions: for concentration at 0.25 hr: pre-tx time 0.25 hr, unbound
Protocol: (§1) Compound 100 was administered using the mouse automated formalin model at a dosage of 135 mg/kg p.o. Dosage was selected based upon projection from mouse exposure at 5 mg/kg.

[2] = tested on: mouse automated formalin model; test: mouse automated formalin test; type: in vivo; conditions: 135 mg/kg p.o.
Protocol: as §1

[3] = target: hNav1.7 (Homo sapiens, UniProt Q15858); test: Nav1.7 in vitro inhibition assay; type: cell-based; conditions: for subtype selectivity (Nav1.7 vs. Nav1.5): in words
[4] = target: hNav1.5 (Homo sapiens, UniProt Q14524); test: Nav1.5 in vitro inhibition assay; type: cell-based; conditions: in vitro testing
[5] = ADME assays (solubility, CYP inhibition, in vitro metabolism); conditions: in words
[6] = tested on: muscarinic receptors in the rat cerebral cortex; conditions: cited from earlier work
[7] = 135 mg/kg p.o., 0.25 hr, versus FI IC50
[8] = 135 mg/kg p.o., 0.25 hr, versus SI IC50
[9] = in vitro testing, read-out: potency against Nav1.7

Chain of hNav1.7 (Q15858 whole entry): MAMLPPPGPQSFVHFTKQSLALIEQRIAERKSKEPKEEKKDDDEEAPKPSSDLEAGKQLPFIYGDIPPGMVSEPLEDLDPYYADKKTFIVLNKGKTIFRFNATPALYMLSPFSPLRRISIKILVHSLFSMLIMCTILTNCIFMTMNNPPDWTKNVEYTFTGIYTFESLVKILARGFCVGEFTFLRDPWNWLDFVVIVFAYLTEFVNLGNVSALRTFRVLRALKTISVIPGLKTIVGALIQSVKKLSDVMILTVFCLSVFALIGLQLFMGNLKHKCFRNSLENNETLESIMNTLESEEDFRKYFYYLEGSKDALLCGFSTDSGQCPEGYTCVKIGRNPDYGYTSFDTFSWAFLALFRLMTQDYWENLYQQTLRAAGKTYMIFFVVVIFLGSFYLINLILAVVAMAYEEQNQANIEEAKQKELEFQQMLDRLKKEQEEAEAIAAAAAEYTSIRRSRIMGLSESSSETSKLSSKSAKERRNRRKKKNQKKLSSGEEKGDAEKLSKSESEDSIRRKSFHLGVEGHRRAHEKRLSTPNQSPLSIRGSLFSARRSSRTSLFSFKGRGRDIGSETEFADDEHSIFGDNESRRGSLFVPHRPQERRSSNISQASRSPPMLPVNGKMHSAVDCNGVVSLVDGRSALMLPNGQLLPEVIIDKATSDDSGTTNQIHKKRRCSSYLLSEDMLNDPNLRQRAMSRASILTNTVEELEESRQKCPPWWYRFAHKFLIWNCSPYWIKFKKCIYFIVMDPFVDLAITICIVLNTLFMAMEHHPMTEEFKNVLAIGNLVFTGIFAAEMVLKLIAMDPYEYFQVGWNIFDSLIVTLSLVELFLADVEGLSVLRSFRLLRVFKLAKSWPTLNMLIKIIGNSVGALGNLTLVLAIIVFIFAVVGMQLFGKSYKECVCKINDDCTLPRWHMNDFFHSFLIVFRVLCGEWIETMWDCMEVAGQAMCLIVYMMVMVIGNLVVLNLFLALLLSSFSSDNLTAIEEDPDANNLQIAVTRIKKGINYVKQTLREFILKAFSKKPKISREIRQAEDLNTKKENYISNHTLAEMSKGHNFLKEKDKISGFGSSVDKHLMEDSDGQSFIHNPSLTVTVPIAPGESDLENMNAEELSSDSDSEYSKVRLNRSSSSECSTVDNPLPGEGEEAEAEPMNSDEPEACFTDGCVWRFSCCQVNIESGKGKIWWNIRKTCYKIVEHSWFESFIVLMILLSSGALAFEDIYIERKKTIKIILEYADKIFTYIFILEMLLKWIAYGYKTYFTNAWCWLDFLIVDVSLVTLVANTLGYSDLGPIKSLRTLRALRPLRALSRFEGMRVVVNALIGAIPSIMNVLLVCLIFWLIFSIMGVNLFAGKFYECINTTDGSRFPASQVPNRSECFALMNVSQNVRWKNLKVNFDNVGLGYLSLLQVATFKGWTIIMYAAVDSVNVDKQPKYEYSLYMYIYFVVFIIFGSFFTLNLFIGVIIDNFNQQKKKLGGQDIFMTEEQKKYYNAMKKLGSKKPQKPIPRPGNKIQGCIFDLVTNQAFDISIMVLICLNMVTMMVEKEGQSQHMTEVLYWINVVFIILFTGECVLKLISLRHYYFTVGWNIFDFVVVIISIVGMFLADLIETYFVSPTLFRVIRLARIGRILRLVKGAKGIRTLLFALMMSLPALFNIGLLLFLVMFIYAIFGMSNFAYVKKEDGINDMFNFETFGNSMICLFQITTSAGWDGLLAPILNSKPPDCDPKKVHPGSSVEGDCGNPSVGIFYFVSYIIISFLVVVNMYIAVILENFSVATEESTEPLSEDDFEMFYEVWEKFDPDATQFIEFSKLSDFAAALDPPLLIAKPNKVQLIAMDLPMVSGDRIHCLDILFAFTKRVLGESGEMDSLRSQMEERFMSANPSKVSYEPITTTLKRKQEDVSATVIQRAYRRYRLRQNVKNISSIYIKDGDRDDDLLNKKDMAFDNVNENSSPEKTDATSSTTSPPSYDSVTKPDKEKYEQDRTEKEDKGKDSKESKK
Chain of hNav1.5 (Q14524 whole entry): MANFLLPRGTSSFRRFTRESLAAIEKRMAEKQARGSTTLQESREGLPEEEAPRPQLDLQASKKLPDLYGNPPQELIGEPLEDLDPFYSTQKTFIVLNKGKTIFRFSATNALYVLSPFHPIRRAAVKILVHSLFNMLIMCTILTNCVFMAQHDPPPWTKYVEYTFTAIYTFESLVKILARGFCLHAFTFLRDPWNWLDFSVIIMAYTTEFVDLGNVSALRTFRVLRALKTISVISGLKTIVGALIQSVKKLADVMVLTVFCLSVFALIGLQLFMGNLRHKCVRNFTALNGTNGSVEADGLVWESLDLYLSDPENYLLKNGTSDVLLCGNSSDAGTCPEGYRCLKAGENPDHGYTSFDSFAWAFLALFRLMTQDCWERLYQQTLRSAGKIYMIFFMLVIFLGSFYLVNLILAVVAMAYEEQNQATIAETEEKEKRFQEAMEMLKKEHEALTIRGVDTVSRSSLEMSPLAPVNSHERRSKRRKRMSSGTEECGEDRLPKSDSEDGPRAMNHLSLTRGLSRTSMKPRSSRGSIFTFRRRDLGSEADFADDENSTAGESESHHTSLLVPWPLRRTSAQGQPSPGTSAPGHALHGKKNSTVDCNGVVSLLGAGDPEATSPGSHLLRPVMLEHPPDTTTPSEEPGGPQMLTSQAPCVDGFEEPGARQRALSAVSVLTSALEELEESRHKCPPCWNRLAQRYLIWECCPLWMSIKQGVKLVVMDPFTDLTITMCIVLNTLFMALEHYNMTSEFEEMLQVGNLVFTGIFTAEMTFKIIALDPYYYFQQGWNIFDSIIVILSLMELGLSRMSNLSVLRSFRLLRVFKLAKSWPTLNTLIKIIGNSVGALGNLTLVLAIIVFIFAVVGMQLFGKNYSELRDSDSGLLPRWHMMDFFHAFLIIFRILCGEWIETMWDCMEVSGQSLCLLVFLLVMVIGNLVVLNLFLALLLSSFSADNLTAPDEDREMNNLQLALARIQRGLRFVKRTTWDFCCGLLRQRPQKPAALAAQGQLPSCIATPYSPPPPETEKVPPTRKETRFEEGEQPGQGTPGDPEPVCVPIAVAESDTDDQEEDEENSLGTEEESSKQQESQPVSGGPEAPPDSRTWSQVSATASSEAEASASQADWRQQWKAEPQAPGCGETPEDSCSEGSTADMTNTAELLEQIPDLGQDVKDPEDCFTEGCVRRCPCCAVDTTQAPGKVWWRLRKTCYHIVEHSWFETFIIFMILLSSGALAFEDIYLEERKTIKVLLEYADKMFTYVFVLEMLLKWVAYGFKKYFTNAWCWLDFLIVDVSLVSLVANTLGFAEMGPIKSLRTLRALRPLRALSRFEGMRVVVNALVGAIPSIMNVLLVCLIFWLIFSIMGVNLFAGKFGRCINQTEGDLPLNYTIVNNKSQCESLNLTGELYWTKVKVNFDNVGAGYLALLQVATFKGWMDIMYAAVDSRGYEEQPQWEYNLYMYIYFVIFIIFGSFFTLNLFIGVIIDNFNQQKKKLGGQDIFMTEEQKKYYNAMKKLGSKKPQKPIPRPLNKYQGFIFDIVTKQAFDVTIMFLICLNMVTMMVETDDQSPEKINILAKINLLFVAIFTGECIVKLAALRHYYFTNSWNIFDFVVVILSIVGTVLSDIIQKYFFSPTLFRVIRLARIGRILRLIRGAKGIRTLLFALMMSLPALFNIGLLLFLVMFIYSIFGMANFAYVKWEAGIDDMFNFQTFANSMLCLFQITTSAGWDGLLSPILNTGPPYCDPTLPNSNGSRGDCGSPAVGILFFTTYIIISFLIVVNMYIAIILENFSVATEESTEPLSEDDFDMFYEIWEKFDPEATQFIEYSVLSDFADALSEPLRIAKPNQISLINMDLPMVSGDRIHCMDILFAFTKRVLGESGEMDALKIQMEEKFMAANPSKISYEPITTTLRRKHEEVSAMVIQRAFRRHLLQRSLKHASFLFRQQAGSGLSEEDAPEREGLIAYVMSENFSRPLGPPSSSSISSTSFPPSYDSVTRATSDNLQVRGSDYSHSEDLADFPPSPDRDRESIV

Brain TER (FI) [1, 7]: 0.2 (FI)
Plasma TER (FI) [1, 7]: 0.1 (FI)
Brain TER (SI) [1, 8]: 1.8 (SI)
Plasma TER (SI) [1, 8]: 1.2 (SI)
concentration at 0.25 hr ([1]; brain, po, mouse, 135 mg/kg p.o., read-out: Mean Brain, u): 414 nM
Tmax ([1]; in vivo, po, mouse): 15 min
half-life ([1]; in vivo, po, mouse): 66 min
concentration at 0.25 hr ([1]; plasma, po, mouse, 135 mg/kg p.o., read-out: Mean plasma, u): 282 nM
IC50 ([3]; FI, read-out: h1.7 IC50 (FI)): 2020 nM
IC50 [3, 9]: 570 nM
compound profiling in ADME assays [5]: promising
Compound: CC(C)(CO)CCCNC(=O)c1cc(-c2ccccc2)on1 [Compound 100]
reduction in late-phase pain-induced reactions [2]: 31.4%
Percent Reversal in Late Phase Formalin ([2]; pre-tx time 0.25 hr): 31.4 ± 5.1%
subtype selectivity (Nav1.7 vs. Nav1.5) [3]: poor selectivity
IC50 ([4]; read-out: Nav1.5 potency): 1900 nM

Compound: Cc1scc2c1N(C(=O)CN1CCN(C)CC1)c1ccccc1NC2=O [(−)-isomer, telenzepine]
fold less active than the (+)-isomer [6]: 500 ×

Compound: CN(CCCC(C)(C)CO)C(=O)c1cc(-c2ccccc2)on1 [Compound 119]
subtype selectivity (Nav1.7 vs. Nav1.5) [3]: improved

Compound: Cc1ccc(F)cc1-c1c(C(=O)NCCCC(C)(C)CO)noc1-c1ccccc1 [Compound 130]
subtype selectivity (Nav1.7 vs. Nav1.5) [3]: improved

IC50 [3, 9]: 60 nM
Compound: CC(C)(CO)CCCNC(=O)c1noc(-c2ccccc2)c1-c1ccccc1 [Compound 106]
subtype selectivity (Nav1.7 vs. Nav1.5) [3]: remained poor
IC50 ([4]; read-out: Nav1.5 IC50): 180 nM
